Test results published in patent publication US20260355357A1, “DIAGNOSTIC AGENTS AND USES THEREOF” (HADASIT MEDICAL RESEARCH SERVICES AND DEVELOPMENT LTD., priority 2023, published 2026).
Values joined by “and” are separate entries in the source; they are usually repeats but may differ in a detail not shown here. Identical values can stand only once. Like-named read-outs stand apart in the source and are kept apart here. Marks after values point to notes of the source that are not given here. Values belong to the compound of their own block, whether it stands above or below them.

Legend:
[1] = Adverse effects after bolus intravenous injection of DDG, rats; assay type: in vivo, rat; conditions: bolus i.v., 37 mg/kg to 248 mg/kg (mice and rats), awake up to 78 min
Protocol: (§1) Mice and rats, males and females at equal numbers, were intravenously injected with a bolus of varying doses of deuterated 2-deoxy-D-glucose (2-DG, DDG, with varying numbers and positions of deuteration). DDGs were provided by CortecNet, France. The injection was performed under sedation in all rats (18) and in 12 of 18 mice, after which the animals woke up within 1 minute. […] Further to euthanasia, the brain, liver, kidneys, heart, and muscle were excised and immediately placed in liquid nitrogen. The frozen tissue samples were kept at −80 °C until further processing.
(§2) The animals were observed awake for up to 78 min after the injection. The injection bolus was administered in less than 1 s and ranged from 0.1 mL for mice (ca. 25-40 g) to 0.6 mL for rats (ca. 120-160 g).

[2] = Adverse effects after bolus intravenous injection of DDG, mice; assay type: in vivo, mouse; conditions: bolus i.v., 37 mg/kg to 248 mg/kg (mice and rats), awake up to 78 min
Protocol: as §1, §2

[3] = Biodistribution of deuterated 2-deoxy-D-glucose, 2H-NMR of tissue extracts, mice; assay type: in vivo, mouse; conditions: [D2]DDG bolus i.v., 169-182 mg/kg (non-labeled 2DG equivalent)
Protocol: as §1
Extraction of the water-soluble metabolites and the lipids was carried out using the dual-phase extraction procedure as described previously [Katz-Brull R, et al. Differential routing of choline in implanted breast cancer and normal organs. Article. Magnetic Resonance in Medicine. July 2001; 46(1):31-38. doi:10.1002/mrm.1157]. Briefly, a frozen sample is placed in 10 mL of ice-cold methanol containing 0.4 mM phenyl phosphonic acid for at least 1 hour. The tissue is then homogenized in ice-cold methanol using a tissue homogenizer. Equal volumes of chloroform and water are then added to the sample tube, and the mixture is vortexed and vigorously shaken. The samples are allowed to stand at 4 °C for at least 24 hours for phase separation. The methanol-water phase is aspirated, treated with Chelex to remove divalent ions, and then lyophilized for at least 24 hours. When the samples are dry (as powder), they are redissolved in 0.5 mL of double-distilled water and transferred to 5-mm NMR tubes for scanning. The samples are scanned in a 9.4 T NMR spectrometer.

[4] = Deuteron T1 determined by Inversion Recovery technique (5.8T, saline); assay type: physicochemical; conditions: for T1 relaxation time of deuterons at D site / HDO T1: 5.8T, saline
Protocol: Example 1: Determinations of Deuterons T1 in Sugar Molecules
Table 1 describes the difference in T1 of deuterons in water (HDO, natural abundance) and in sites labelled with deuterons in various molecules that were determined using an Inversion Recovery technique. […] PGP-47 TI

brain slices = assay: [6,6-D2]D-glucose uptake and metabolism in perfused brain slices, deuterium NMR; assay type: in vitro ADME, rat (male Sprague-Dawley); conditions: for D-Lac before 1st ischemia: group F; for Maximal D-Lac during 1st ischemia: group G; for D-Lac in between ischemic conditions: group H; for Maximal D-Lac during 2nd ischemia: group I; for D-Lac after 2nd ischemic condition: group J; for D-Glc before 1st ischemia: group A; for Minimum D-Glc during 1st ischemia: group B, 10 min perfusion arrest; for Maximal difference of D-Glc before and during 1st ischemia: group B′; for D-Glc in between ischemic conditions: group C; for Minimum D-Glc during 2nd ischemia: group D; for Maximal difference of D-Glc before and during 2nd ischemia: group D′; for D-Glc after 2nd ischemic condition: group E
Text: Male Sprague-Dawley rats (n=4, 70-100 g) were obtained from the Hebrew University Authority of Biological and Biomedical Models. The joint ethics committee (IACUC) of the Hebrew University and Hadassah Medical Center approved the study protocol for animal welfare. The Hebrew University is an AAALAC International accredited institute. Care was taken to minimize the animals' pain and discomfort. Animals were housed in the animal facilities 3-5 days after delivery for acclimatization and fed ad libitum. On the experimental day, animals were transferred to the laboratory and anesthetized within one hour of arrival.
To improve the health of acute brain slices obtained from mature adult rats, we modified a slice preparation technique optimized for in vitro electrophysiology in mature adult rat brain slices. In brief, slice health is improved by a so-called “protective recovery” method. NMDG is an extracellular replacer of sodium ions that prevents sodium ions and water influx into cells, the primary insult causing cell death following brain slicing. […] Furthermore, incubation in HEPES-buffered artificial cerebrospinal fluid (aCSF) improved slice health. The following solutions were prepared in the current study, and their use is described in the sections below.
NMDG-aCSF was used for transcardial perfusion, tissue slicing, and slice recovery. This medium contained 93 mM NMDG, 2.5 mM KCl, 1.2 mM NaH2PO4, 26 mM NaHCO3, 20 mM HEPES, 25 mM D-glucose, 10 mM MgSO4, 0.5 mM CaCl2, 5 mM ascorbic acid, 2 mM thiourea, and 3 mM pyruvic acid in double distilled water.
HEPES-holding aCSF was used to incubate slices following the surgical procedure. This medium contained 84 mM NaCl, 2.5 mM KCl, 1.2 mM NaH2PO4, 30 mM NaHCO3, 20 mM HEPES, 25 mM Glc (D-glucose, non-labeled), 2 mM MgSO4, 2 mM CaCl2, 5 mM ascorbic acid, 2 mM thiourea, and 3 mM pyruvic acid in double distilled water.
Perfusion aCSF was used for perfusion in the NMR spectrometer. This medium contained 115 mM NaCl, 2.5 mM KCl, 1.2 mM NaH2PO4, 24 mM NaHCO3, 5 mM HEPES, 10 mM Glc (to be replaced with 10 mM D-Glc), 2 mM MgSO4, and 2 mM CaCl2 in double distilled water.
All three solutions (1-3) were bubbled with 95%/5% O2/CO2 for at least one hour before use and titrated to a pH of 7.35-7.45 using HCl or NaOH. All concentrations were optimized for a calculated osmolarity of 310±15 mOsm.
Brain slices were extracted and maintained using the above solutions as previously described. Briefly, the rats were anesthetized using a gas anesthesia system (Somnosuite, Kent Scientific, Torrington, CT, USA). Induction was performed in a chamber with 3.5% isoflurane in room air with a flow rate of 440 mL/min. Following 4-7 min of induction, anesthesia was maintained with 3.1-3.2% isoflurane at the same flow rate. Upon obtaining a negative pedal pain reflex, surgery was initiated. First, the diaphragm was exposed and cut, and the rat was transcardially perfused with 30 mL of ice-cold NMDG-aCSF (Solution 1). The animals were then sacrificed by decapitation, and the brain was rapidly removed and placed in ice-cold NMDG-aCSF (Solution 1). The cerebrum was then cut into four parts (first, a sagittal cut along the hemispheric cleft and then a sagittal cut in the middle of each hemisphere). From each part, 350 μm slices were prepared using a McIlwain tissue chopper (The Mickle Laboratory Engineering Company Ltd., Surrey, UK). The process of brain extraction, from decapitation till the brain was in ice-cold NMDG-aCSF, took under 2 min, and the slicing procedure was done in less than 10 min. After cutting, the slices were transferred to warm, 32-34 °C, NMDG-aCSF (Solution 1) for 12 min for protective recovery. Then, the slices were transferred to HEPES-holding aCSF (Solution 2) at ~32 °C for 15-40 min incubation before transfer to the NMR spectrometer, where the slices were perfused with the aCSF of Solution 3. […]

[5] = position 1 (aliphatic), 16-17 °C
[6] = position 2 (aliphatic), 16-17 °C

T1 relaxation time of deuterons at D site ([4]; aliphatic, 16-17 °C): 48 ms
T1 relaxation time of deuterons at D site ([4]; aromatic, 16-17 °C): 43 ms
SMILES: N[C@@H](Cc1ccc(O)cc1)C(=O)O [[D7]tyrosine]

T1 relaxation time of deuterons at D site ([4]; aliphatic, 16-17 °C): 45 ms
T1 relaxation time of deuterons at D site ([4]; aromatic, 16-17 °C): 45 ms
SMILES: N[C@@H](Cc1ccc(O)cc1)C(=O)O [[^13C9, D7, ^15N]tyrosine]

time for return to baseline level upon reperfusion (brain slices; after 1st ischemic condition): ≤ 8 min
time of first observation of D-Lac signal (brain slices; after D-Glc administration): ≤ 8 min
time for D-Lac to reach plateau (brain slices; after D-Glc administration, n=3): 12 to 14 min
increase in D-Lac concentration (brain slices; both ischemic conditions, n=6): 5.5 ± 1.1 mM
D-Lac level without perfusion arrest (brain slices; control experiment, no ischemic conditions): constant throughout
D-Lac before 1st ischemia (brain slices; average ± SD, n=3): 0.9 ± 0.4 mM
D-Lac before 1st ischemia (brain slices; individual animals): 0.4 mM and 1.02 mM and 1.4 mM
Maximal D-Lac during 1st ischemia (brain slices; average ± SD, n=3): 5.1 ± 1.3 mM
Maximal D-Lac during 1st ischemia (brain slices; individual animals): 4.8 mM and 3.7 mM and 6.8 mM
D-Lac in between ischemic conditions (brain slices; average ± SD, n=3): 1.1 ± 0.3 mM
D-Lac in between ischemic conditions (brain slices; individual animals): 0.67 mM and 1.29 mM and 1.41 mM
Maximal D-Lac during 2nd ischemia (brain slices; average ± SD, n=3): 5.91 ± 0.12 mM
Maximal D-Lac during 2nd ischemia (brain slices; individual animals): 5.85 mM and 6.07 mM and 5.80 mM
D-Lac after 2nd ischemic condition (brain slices; average ± SD, n=3): 1.6 ± 0.4 mM
D-Lac after 2nd ischemic condition (brain slices; individual animals): 1.08 mM and 1.50 mM and 2.16 mM
Maximal D-Lac during 3rd ischemia (brain slices; group N, animal 3, 64 min ischemia): 10.2 mM
D-Lac after 3rd ischemia (brain slices; group O, animal 3): 2.7 mM
D-Lac signal in medium without brain slices relative to D-Lac in NMR tube with slices (brain slices; perfusion medium, five h, no perfusion arrest): 2.2%
SMILES: [2H]C([2H])C(O)C(=O)O [D-Lac, [3,3-D2]lactate]
D-Lac accumulation within the cells due to ischemic conditions (brain slices; after 2nd reperfusion vs before and between ischemic conditions): did not accumulate within the cells due to the ischemic conditions

More lines, now with the values behind:

SMILES: [2H]C1(O)O[C@]([2H])(C([2H])([2H])O)[C@@]([2H])(O)[C@]([2H])(O)C1([2H])[2H] (stereo partly drawn) [[D8]DDG, [1,2,2,3,4,5,6,6-D8]2-deoxy-D-glucose]
adverse effects [1]: no adverse effects
adverse effects [2]: no adverse effects

SMILES: [2H]C([2H])(O)[C@H]1OC(O)C[C@@H](O)[C@@H]1O (stereo partly drawn) [[D2]DDG, [6,6-D2]2-deoxy-D-glucose]
adverse effects [1]: no adverse effects
adverse effects [2]: no adverse effects
concentration ([3]; n=1, read-out: concentration in the liver): 400 µM
concentration ([3]; n=2, read-out: concentration in the brain): 1190 µM

SMILES: C[N+](C)(C)CCO [[2-^13C,1,1,2,2-D4]choline chloride]
T1 relaxation time of deuterons at D site [4, 5]: 422 ms
T1 relaxation time of deuterons at D site [4, 6]: 404 ms

SMILES: C[N+](C)(C)CCO [[D13]choline bromide]
T1 relaxation time of deuterons at D site [4, 5]: 389 ms
T1 relaxation time of deuterons at D site [4, 6]: 396 ms
T1 relaxation time of deuterons at D site ([4]; position 3 (aliphatic), 16-17 °C): 382 ms

SMILES: [2H]O [HDO]
HDO T1 ([4]; HDO in the solution of [13C6, D7]glucose, 20 °C): 279 ms
HDO T1 ([4]; HDO in the solution of the compound on that line, 16-17 °C): 420 ms and 437 ms and 422 ms and 410 ms
HDO's T1 ([4]; summary of Table 1): ca. 400 ms

SMILES: OC[C@H]1OC(O)[C@H](O)[C@@H](O)[C@@H]1O (stereo partly drawn) [D-Glc, [6,6-D2]D-glucose]
time for return to baseline level upon reperfusion (brain slices; after 1st ischemic condition): ≤ 8 min
time for return to baseline level upon reperfusion (brain slices; after 2nd ischemic condition): ≤ 8 min
time for D-Glc signal to reach plateau (brain slices; after administration of D-Glc to perfusion medium): ≤ 6 min
maximal decrease in the D-Glc concentration (brain slices; both ischemic conditions, n=6): 4.3 ± 0.9 mM
conversion of available D-Glc (brain slices; during the ischemic conditions): fully converted to D-Lac
D-Glc before 1st ischemia (brain slices; average ± SD, n=3): 8.6 ± 0.7 mM
D-Glc before 1st ischemia (brain slices; individual animals): 9.3 mM and 8.8 mM and 7.6 mM
Minimum D-Glc during 1st ischemia (brain slices; average ± SD, n=3): 4.6 ± 1.5 mM
Minimum D-Glc during 1st ischemia (brain slices; individual animals): 4.7 mM and 6.4 mM and 2.8 mM
Maximal difference of D-Glc before and during 1st ischemia (brain slices; average ± SD, n=3): 3.9 ± 1.3 mM
Maximal difference of D-Glc before and during 1st ischemia (brain slices; individual animals): 4.6 mM and 2.4 mM and 4.8 mM
D-Glc in between ischemic conditions (brain slices; average ± SD, n=3): 8.7 ± 0.7 mM
D-Glc in between ischemic conditions (brain slices; individual animals): 9.5 mM and 8.6 mM and 7.9 mM
Minimum D-Glc during 2nd ischemia (brain slices; average ± SD, n=3): 4.1 ± 0.5 mM
Minimum D-Glc during 2nd ischemia (brain slices; individual animals): 4.6 mM and 4.2 mM and 3.4 mM
Maximal difference of D-Glc before and during 2nd ischemia (brain slices; average ± SD, n=3): 4.6 ± 0.3 mM
Maximal difference of D-Glc before and during 2nd ischemia (brain slices; individual animals): 4.9 mM and 4.4 mM and 4.5 mM
D-Glc after 2nd ischemic condition (brain slices; average ± SD, n=3): 9.3 ± 1.1 mM
D-Glc after 2nd ischemic condition (brain slices; individual animals): 10.8 mM and 8.8 mM and 8.2 mM
D-Glc in between 2nd and 3rd ischemic conditions (brain slices; group K, animal 3): 8.3 mM
Minimum D-Glc during 3rd ischemia (brain slices; group L, animal 3, 64 min ischemia): 1.2 mM
Maximal difference of D-Glc before and during 3rd ischemia (brain slices; group L′, animal 3): 7.1 mM
D-Glc after 3rd ischemic condition (brain slices; group M, animal 3): 9.1 mM
T1 relaxation time of deuterons at D site ([4]; aliphatic, 16-17 °C): 53 ^c ms

SMILES: OC[C@H]1OC(O)[C@H](O)[C@@H](O)[C@@H]1O (some centres unmarked) [[^13C6, D7]glucose]
T1 relaxation time of deuterons at D site ([4]; aliphatic + ring, 20 °C): 56 ms
